The target in experiment [1] is T1, human FLT3 protein (FLT3 (WT)) (Homo sapiens, UniProt P36888).
T1 construct: human FLT3 protein (intracellular region, 564 to 993 aa); GST; purchased Carna Biosciences; host or cells: baculovirus expression system
T1 sequence (P36888 564-993): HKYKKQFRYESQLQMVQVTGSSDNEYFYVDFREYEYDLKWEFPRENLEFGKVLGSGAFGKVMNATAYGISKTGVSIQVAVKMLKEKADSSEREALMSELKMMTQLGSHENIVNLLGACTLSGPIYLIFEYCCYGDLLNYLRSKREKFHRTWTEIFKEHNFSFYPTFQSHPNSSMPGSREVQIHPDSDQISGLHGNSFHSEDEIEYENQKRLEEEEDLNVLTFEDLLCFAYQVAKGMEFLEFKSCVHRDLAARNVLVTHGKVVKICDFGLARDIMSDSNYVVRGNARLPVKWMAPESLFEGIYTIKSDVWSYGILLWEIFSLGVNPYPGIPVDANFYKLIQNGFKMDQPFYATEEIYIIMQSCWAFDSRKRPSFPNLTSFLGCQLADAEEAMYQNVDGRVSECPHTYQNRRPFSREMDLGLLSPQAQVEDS
As to the kind of experiment: FLT3 inhibition test (FLT3 enzyme inhibition, time-resolved fluorescence of substrate peptide phosphorylation). The experiment is classed as biochemical. Particulars: FLT3 (WT); read-out: FLT3 (WT) enzyme inhibition activity. In outline: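 Substrate peptide phosphorylation detected by time-resolved fluorescence after a 30 min kinase reaction at 25° C with 50 μM ATP (final). Beforehand, compound and FLT3 (WT, 1.2 μg) stood 15 min at 25° C in HEPES buffer pH 7.5 containing MgCl2, NaCl, BSA and DTT.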

In a further experiment the test system is MV4-11 cells. Kind of experiment: Leukemia cell proliferation inhibition test (ATPlite), MV4-11. It counts as cell-based. Particulars: Homo sapiens, MV4-11, MV4-11 cell; read-out: MV4-11 cell proliferation inhibition effect. In outline: (§1)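 Luminescent ATP read-out (firefly luciferase) used as a total cell count after 72 h compound exposure at 37° C, 5% CO2. Cells: 10,000/well in RPMI + 10% FBS. GI50 = 50% inhibition relative to 0.1% DMSO, from a sigmoid dose-response fit; duplicates.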
On the technique in general: ATP-based viability assays read luminescence as a measure of living cells.

Another experiment concerns Molm-13 cells. As to the kind of experiment: Leukemia cell proliferation inhibition test (ATPlite), Molm-13. The experiment is classed as cell-based. The settings on record: Homo sapiens, MOLM-13, MOLM13 cell; read-out: MOLM13 cell proliferation inhibition effect. The gist of the method:
as §1

pIC50: −log10 of the molar value.

For the compound `CCCNc1nc(Nc2ccc3ncccc3c2)ncc1C#CCCCNC(=O)[C@H](C)N(C)C(=O)/C=C/CN(C)C` [Compound 22-2], the pIC50 (in experiment [1]; in the experiment on MV4-11 cells; with Molm-13 cells) was over 8.00 in each case.
In the case of `CCCNc1nc(Nc2cnc3ccccc3c2)ncc1C#CCCCNC(=O)[C@H](C)N(C)C(=O)/C=C/CN(C)C` [Compound 22-3], the values for the pIC50 (in experiment [1]; in the experiment with MV4-11 cells; in the experiment with Molm-13 cells) were over 8.00, 7.00 to 8.00 and 7.00 to 8.00, respectively.
On to `CCCNc1nc(Nc2ccc3nccnc3c2)ncc1C#CCCCNC(=O)[C@H](C)N(C)C(=O)/C=C/CN(C)C` [Compound 22-4], for which the pIC50 (in experiment [1]; with MV4-11 cells; with Molm-13 cells) was over 8.00 throughout.
Turning to `CCCNc1nc(Nc2ccc3nc(C)ccc3c2)ncc1C#CCCCNC(=O)[C@H](C)N(C)C(=O)/C=C/CN(C)C` [Compound 22-5], the pIC50 in experiment [1] was 7.00 to 8.00; in the experiment with MV4-11 cells, 6.00 to 7.00; with Molm-13 cells it was 7.00 to 8.00.
As for `CCCNc1nc(Nc2ccc3ncsc3c2)ncc1C#CCCCNC(=O)[C@H](C)N(C)C(=O)/C=C/CN(C)C` [Compound 22-6, (S,E)-N-(1-((5-(2-(Benzo[d]thiazol-6-ylamino)-4-(propylamino)pyrimidin-5-yl)-4-pentyn-1-yl)amino)-1-oxopropan-2-yl)-4-(dimethylamino)-N-methyl-2-butenamide], the pIC50 (in experiment [1]; in the experiment on MV4-11 cells; with Molm-13 cells) was over 8.00 throughout.
For `CCCNc1nc(Nc2ccc3sc(C)nc3c2)ncc1C#CCCCNC(=O)[C@H](C)N(C)C(=O)/C=C/CN(C)C` [Compound 22-7], the pIC50 was over 8.00 in experiment [1], 7.00 to 8.00 in the experiment with MV4-11 cells and 7.00 to 8.00 in the experiment on Molm-13 cells.
With `CCCNc1nc(Nc2cncc(F)c2)ncc1C#CCCCNC(=O)[C@H](C)N(C)C(=O)/C=C/CN(C)C` [Compound 22-8], the pIC50 in experiment [1] is over 8.00; with MV4-11 cells, over 8.00; with Molm-13 cells, 7.00 to 8.00.
As to `CCCNc1nc(Nc2cncc(Cl)c2)ncc1C#CCCCNC(=O)[C@H](C)N(C)C(=O)/C=C/CN(C)C` [Compound 22-9], the pIC50 in experiment [1] was over 8.00; with MV4-11 cells, 7.00 to 8.00; with Molm-13 cells it was 7.00 to 8.00.
For `CCCNc1nc(Nc2ccc3c(cnn3CCOC)c2)ncc1C#CCCCNC(=O)[C@H](C)N(C)C(=O)/C=C/CN(C)C` [Compound 22-10], the pIC50 (in experiment [1]; in the experiment with MV4-11 cells; in the experiment with Molm-13 cells) was over 8.00 throughout.
For `CCCNc1nc(Nc2ccc3cnn(CCOC)c3c2)ncc1C#CCCCNC(=O)[C@H](C)N(C)C(=O)/C=C/CN(C)C` [Compound 22-11], the pIC50 (in experiment [1]; with MV4-11 cells; with Molm-13 cells) was over 8.00 throughout.
In the case of `CCCNc1nc(Nc2ccc3c(c2)c(N(C)C)nn3C)ncc1C#CCCCNC(=O)[C@H](C)N(C)C(=O)/C=C/CN(C)C` [Compound 22-12], the pIC50 (in experiment [1]; in the experiment with MV4-11 cells; with Molm-13 cells) was over 8.00 in each case.
Turning to `CCCNc1nc(Nc2cc(F)c3c(c2)c(N(C)C)nn3C)ncc1C#CCCCNC(=O)[C@H](C)N(C)C(=O)/C=C/CN(C)C` [Compound 22-13], the figures for the pIC50 (in experiment [1]; in the experiment with MV4-11 cells; in the experiment with Molm-13 cells) were 7.00 to 8.00, 6.00 to 7.00 and 7.00 to 8.00, respectively.
Consider `CCCNc1nc(Nc2ccc3c(c2)c(OC)nn3CCOC)ncc1C#CCCCNC(=O)[C@H](C)N(C)C(=O)/C=C/CN(C)C` [Compound 22-14], for which the pIC50 (in experiment [1]; in the experiment on MV4-11 cells; in the experiment with Molm-13 cells) was over 8.00 in each case.
For the compound `CCCNc1nc(Nc2ccc(-n3cccn3)cc2)ncc1C#CCCCNC(=O)[C@H](C)N(C)C(=O)/C=C/CN(C)C` [Compound 22-15], the pIC50 in experiment [1] was over 8.00; in the experiment with MV4-11 cells, 7.00 to 8.00; in the experiment with Molm-13 cells it was 7.00 to 8.00.
As to `CCCNc1nc(Nc2ccc(-n3nccn3)cc2)ncc1C#CCCCNC(=O)[C@H](C)N(C)C(=O)/C=C/CN(C)C` [Compound 22-16], the pIC50 (in experiment [1]; in the experiment with MV4-11 cells; in the experiment on Molm-13 cells) was 7.00 to 8.00 throughout.
For the compound `CCCNc1nc(Nc2ccc(-n3ccnn3)cc2)ncc1C#CCCCNC(=O)[C@H](C)N(C)C(=O)/C=C/CN(C)C` [Compound 22-17], the pIC50 (in experiment [1]; in the experiment on MV4-11 cells; with Molm-13 cells) was over 8.00 each time.
With `CCCNc1nc(Nc2cccc(-n3cccn3)c2)ncc1C#CCCCNC(=O)[C@H](C)N(C)C(=O)/C=C/CN(C)C` [Compound 22-18], the pIC50 (in experiment [1]; in the experiment with MV4-11 cells; with Molm-13 cells) was over 8.00 in each case.
Consider `CCCNc1nc(Nc2cccc(-n3nccn3)c2)ncc1C#CCCCNC(=O)[C@H](C)N(C)C(=O)/C=C/CN(C)C` [Compound 22-19], for which the pIC50 (in experiment [1]; with MV4-11 cells; in the experiment with Molm-13 cells) was over 8.00 in each case.
Take `CCCNc1nc(Nc2cccc(-n3ccnn3)c2)ncc1C#CCCCNC(=O)[C@H](C)N(C)C(=O)/C=C/CN(C)C` [Compound 22-20]: the pIC50 (in experiment [1]; in the experiment on MV4-11 cells; in the experiment with Molm-13 cells) was over 8.00 each time.
As for `CCCNc1nc(Nc2ncc(C#N)s2)ncc1C#CCCCNC(=O)[C@H](C)N(C)C(=O)/C=C/CN(C)C` [Compound 22-22], the pIC50 (in experiment [1]; in the experiment with MV4-11 cells; with Molm-13 cells) was over 8.00 in each case.
Regarding `CNc1ncc(C#CCCCNC(=O)[C@H](C)N(C)C(=O)/C=C/CN(C)C)c(Nc2ccc(OC)nc2)n1` [Compound 22-23], the pIC50 (in experiment [1]; in the experiment with MV4-11 cells; with Molm-13 cells) was over 8.00 each time.
For the compound `COc1ccc(Nc2nc(NC3CC3)ncc2C#CCCCNC(=O)[C@H](C)N(C)C(=O)/C=C/CN(C)C)cn1` [Compound 22-24], the pIC50 (in experiment [1]; with MV4-11 cells; in the experiment on Molm-13 cells) was 7.00 to 8.00 in each case.
As for `CCCNc1nc(Nc2ccc3c(c2)c(OC)nn3C)ncc1C#CCCCNC(=O)[C@H](C)N(C)C(=O)/C=C/CN(C)C` [Compound 22-25], the pIC50 (in experiment [1]; with MV4-11 cells; with Molm-13 cells) was over 8.00 in each case.
Consider `CCCNc1nc(Nc2ccc3c(OC)nn(C)c3c2)ncc1C#CCCCNC(=O)[C@H](C)N(C)C(=O)/C=C/CN(C)C` [Compound 22-26], for which the figures for the pIC50 (in experiment [1]; in the experiment on MV4-11 cells; with Molm-13 cells) were over 8.00, 7.00 to 8.00 and 7.00 to 8.00, respectively.
As for `CCCNc1nc(Nc2cnc3c(cnn3C)c2)ncc1C#CCCCNC(=O)[C@H](C)N(C)C(=O)/C=C/CN(C)C` [Compound 22-27], the pIC50 (in experiment [1]; with MV4-11 cells; in the experiment on Molm-13 cells) was over 8.00 in each case.
Consider `CCCNc1nc(Nc2cnc3c(c2)c(C)nn3C)ncc1C#CCCCNC(=O)[C@H](C)N(C)C(=O)/C=C/CN(C)C` [Compound 22-28], for which the pIC50 (in experiment [1]; with MV4-11 cells; with Molm-13 cells) was over 8.00 each time.
`CCCNc1nc(Nc2cnc3c(c2)c(OC)nn3C)ncc1C#CCCCNC(=O)[C@H](C)N(C)C(=O)/C=C/CN(C)C` [Compound 22-29]: the pIC50 (in experiment [1]; in the experiment on MV4-11 cells; in the experiment with Molm-13 cells) was over 8.00 in each case.
For the compound `CCCNc1nc(Nc2ccc3c(c2)c(OC)nn3C)ncc1C#CCCCNC(=O)[C@@H]1CCCN1C(=O)/C=C/CN(C)C` [Compound 22-30], the pIC50 (in experiment [1]; with MV4-11 cells; with Molm-13 cells) was over 8.00 throughout.
With `CCCNc1nc(Nc2ccc3c(cnn3C)c2)ncc1C#CCCCNC(=O)[C@@H]1CCCN1C(=O)/C=C/CN(C)C` [Compound 22-31, (S,E)-1-(4-(Dimethylamino)-2-butenoyl)-N-(5-(2-((1-methyl-1H-indazol-5-yl)amino)-4-(propylamino)pyrimidin-5-yl)-4-pentyn-1-yl)pyrrolidine-2-carboxamide], the pIC50 (in experiment [1]; in the experiment with MV4-11 cells; in the experiment with Molm-13 cells) was over 8.00 each time.
As for `CCCNc1nc(Nc2ccc3cnn(C)c3c2)ncc1C#CCCCNC(=O)[C@@H]1CCCN1C(=O)/C=C/CN(C)C` [Compound 22-32], the pIC50 (in experiment [1]; with MV4-11 cells; in the experiment on Molm-13 cells) was over 8.00 in each case.
As to `CCCNc1nc(Nc2ccc3cnn(CCOC)c3c2)ncc1C#CCCCNC(=O)[C@@H]1CCCN1C(=O)/C=C/CN(C)C` [Compound 22-33], the pIC50 (in experiment [1]; with MV4-11 cells; in the experiment on Molm-13 cells) was over 8.00 each time.
`COCCNc1nc(Nc2cccc(F)c2)ncc1C#C[C@@H]1CCC[C@H](NC(=O)[C@H](C)N(C)C(=O)/C=C/CN(C)C)C1` [Compound 22-36]: the pIC50 (in experiment [1]; in the experiment on MV4-11 cells; in the experiment with Molm-13 cells) was over 8.00 in each case.
As to `COCCNc1nc(Nc2ccc(F)cc2)ncc1C#C[C@@H]1CCC[C@H](NC(=O)[C@H](C)N(C)C(=O)/C=C/CN(C)C)C1` [Compound 22-37], the pIC50 (in experiment [1]; in the experiment with MV4-11 cells; in the experiment on Molm-13 cells) was over 8.00 in each case.
